Test results as given in PubChem BioAssay AID248 (DTP/NCI, 2004).
Several values for one entry are separate records, joined by “and”; a condition that tells them apart may be missing. Equal values may be shown once. Toxic doses and inconclusive results are not listed.

Tested on: L1210 leukemia ip in BDF1 mice, survival T/C
Experiment: NCI In Vivo Anticancer Drug Screen. Data for tumor model L1210 Leukemia (intraperitoneal) in B6D2F1 (BDF1) mice
Conditions: endpoint: mean survival time, higher = longer survival
Method in brief: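 Value reflects the ratio of survival in compound-treated mice to survival in vehicle-treated controls, with both groups carrying the same transplanted tumor.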

[1] = dose: 100.0 mg/kg/injection, schedule: Q04DX002 (ip), vehicle: Klucel (hydroxypropylcellulose) (HPC)
[2] = dose: 200.0 mg/kg/injection, schedule: Q04DX002 (ip), vehicle: Klucel (hydroxypropylcellulose) (HPC)
[3] = dose: 5.0 mg/kg/injection, schedule: Q01DX001 (ip), vehicle: saline
[4] = dose: 10.0 mg/kg/injection, schedule: Q01DX001 (ip), vehicle: saline
[5] = dose: 20.0 mg/kg/injection, schedule: Q01DX001 (ip), vehicle: saline
[6] = dose: 40.0 mg/kg/injection, schedule: Q01DX001 (ip), vehicle: saline
[7] = dose: 50.0 mg/kg/injection, schedule: Q01DX001 (ip), vehicle: saline
[8] = dose: 100.0 mg/kg/injection, schedule: Q01DX001 (ip), vehicle: saline
[9] = dose: 200.0 mg/kg/injection, schedule: Q01DX001 (ip), vehicle: saline
[10] = dose: 400.0 mg/kg/injection, schedule: Q01DX001 (ip), vehicle: saline
[11] = dose: 100.0 mg/kg/injection, schedule: Q04DX003 (ip), vehicle: Klucel (hydroxypropylcellulose) (HPC)
[12] = dose: 200.0 mg/kg/injection, schedule: Q04DX003 (ip), vehicle: Klucel (hydroxypropylcellulose) (HPC)
[13] = dose: 400.0 mg/kg/injection, schedule: Q04DX003 (ip), vehicle: Klucel (hydroxypropylcellulose) (HPC)
[14] = dose: 100.0 mg/kg/injection, schedule: Q01DX009 (ip), vehicle: Klucel (hydroxypropylcellulose) (HPC)
[15] = dose: 200.0 mg/kg/injection, schedule: Q01DX009 (ip), vehicle: Klucel (hydroxypropylcellulose) (HPC)
[16] = dose: 400.0 mg/kg/injection, schedule: Q01DX009 (ip), vehicle: Klucel (hydroxypropylcellulose) (HPC)
[17] = dose: 100.0 mg/kg/injection, schedule: Q04DX003 (ip), vehicle: saline with Tween-80
[18] = dose: 200.0 mg/kg/injection, schedule: Q04DX003 (ip), vehicle: saline with Tween-80
[19] = dose: 400.0 mg/kg/injection, schedule: Q04DX003 (ip), vehicle: saline with Tween-80

For CN(C)Cc1ccccc1COC(=O)c1ccc(Br)cc1, the T/C (dose: 50.0 mg/kg/injection, schedule: Q04DX002 (ip), vehicle: Klucel (hydroxypropylcellulose) (HPC)) was 98 % of control, the T/C [1] was 105 % of control and the T/C [2] was 94 % of control.
CCCCCCCCN(C)N=Nc1ccc(C(N)=O)cc1 was tested, and the T/C (dose: 118.0 mg/kg/injection, schedule: Q01DX009 (ip), vehicle: Klucel (hydroxypropylcellulose) (HPC)) was 122 % of control and the T/C (dose: 175.0 mg/kg/injection, schedule: Q01DX009 (ip), vehicle: Klucel (hydroxypropylcellulose) (HPC)) was 115 % of control.
In the case of CCN(CC)c1ccc(N=Nc2c(C)nc(N)nc2-c2ccccc2)cc1, the T/C [3] is reported as 103 % of control, the T/C [4] is reported as 96 % of control and the T/C [5] is reported as 91 % of control. The T/C [6] was 92 % of control and the T/C (dose: 80.0 mg/kg/injection, schedule: Q01DX001 (ip), vehicle: saline) was 87 % of control.
In the case of Oc1ccc2c(c1)Cc1c-2nc2ccccc2c1Cl, the T/C [7] is reported as 97 % of control, the T/C [8] is reported as 98 % of control and the T/C [9] is reported as 97 % of control. For the same compound, the T/C [10] was 93 % of control.
COC(=O)C1=CN=NC1=[N+]=[N-] was tested, and the T/C [4] was 103 % of control and the T/C [5] was 97 % of control.
In the case of C[N+]1(CCO)CC[N+](C)(CCCN2c3ccccc3Sc3ccc(Cl)cc32)CC1 (stereo unspecified), the T/C (dose: 10.0 mg/kg/injection, schedule: Q01DX001 (ip), vehicle: carboxymethylcellulose (CMC)) is reported as 98 % of control, the T/C (dose: 20.0 mg/kg/injection, schedule: Q01DX001 (ip), vehicle: carboxymethylcellulose (CMC)) is reported as 101 % of control and the T/C (dose: 40.0 mg/kg/injection, schedule: Q01DX001 (ip), vehicle: carboxymethylcellulose (CMC)) is reported as 113 % of control.
In the case of COc1ccc(OCCOC(=O)Nc2ccccc2C(F)(F)F)cc1, the T/C [11] is reported as 105 % of control, the T/C [12] is reported as 90 % of control and the T/C [13] is reported as 90 % of control.
For O=C(Nc1ccccc1)OCCOc1ccc(Cl)cc1, the T/C [1] was 88 % of control, the T/C [2] was 95 % of control and the T/C (dose: 400.0 mg/kg/injection, schedule: Q04DX002 (ip), vehicle: Klucel (hydroxypropylcellulose) (HPC)) was 95 % of control.
For Cc1ccc(C2NC(=O)c3ccccc3N2)s1 (stereo unspecified), the T/C (dose: 50.0 mg/kg/injection, schedule: Q01DX009 (ip), vehicle: Klucel (hydroxypropylcellulose) (HPC)) was 107 % of control and 92 % of control, the T/C [14] was 98 % of control and 105 % of control and the T/C (dose: 150.0 mg/kg/injection, schedule: Q01DX009 (ip), vehicle: Klucel (hydroxypropylcellulose) (HPC)) was 102 % of control. The T/C [15] was 108 % of control and the T/C [16] was 87 % of control.
ON=C1CCSCC1 was tested, and the T/C [8] was 107 % of control, the T/C [9] was 98 % of control and the T/C [10] was 108 % of control.
With O=NN(CCCl)C(=O)NC1CCC(O)CC1 (stereo unspecified) the T/C (dose: 6.25 mg/kg/injection, schedule: Q01DX001 (ip), vehicle: saline with Tween-80) was 121 % of control, the T/C (dose: 12.5 mg/kg/injection, schedule: Q01DX001 (ip), vehicle: saline with Tween-80) was 189 % of control and the T/C (dose: 12.5 mg/kg/injection, schedule: Q01DX001 (ip), vehicle: saline) was 172 % of control and 239 % of control. The T/C (dose: 13.0 mg/kg/injection, schedule: Q01DX001 (ip), vehicle: saline) was 384 % of control, the T/C [5] was 494 % of control and the T/C (dose: 25.0 mg/kg/injection, schedule: Q01DX001 (ip), vehicle: saline with Tween-80) was 211 % of control. The T/C (dose: 25.0 mg/kg/injection, schedule: Q01DX001 (ip), vehicle: saline) was 198 % of control and 210 % of control and 253 % of control, the T/C (dose: 26.0 mg/kg/injection, schedule: Q01DX001 (ip), vehicle: saline) was 401 % of control and the T/C (dose: 30.0 mg/kg/injection, schedule: Q01DX001 (ip), vehicle: saline) was 494 % of control. The T/C [6] was 435 % of control, the T/C (dose: 44.0 mg/kg/injection, schedule: Q01DX001 (ip), vehicle: saline) was 293 % of control and the T/C (dose: 50.0 mg/kg/injection, schedule: Q01DX001 (ip), vehicle: saline with Tween-80) was 264 % of control. For the same compound, the T/C [7] was 252 % of control and 113 % of control and 176 % of control, the T/C (dose: 60.0 mg/kg/injection, schedule: Q01DX001 (ip), vehicle: saline) was 240 % of control and the T/C (dose: 100.0 mg/kg/injection, schedule: Q01DX001 (ip), vehicle: saline with Tween-80) was 92 % of control. The T/C [8] was 105 % of control and 99 % of control and 110 % of control, the T/C (dose: 200.0 mg/kg/injection, schedule: Q01DX001 (ip), vehicle: saline with Tween-80) was 87 % of control and the T/C [9] was 103 % of control and 95 % of control and 106 % of control.
CC(=O)OC/C=C(\C)CCC=O was tested, and the T/C (dose: 100.0 mg/kg/injection, schedule: Q04DX003 (ip), vehicle: water) was 98 % of control, the T/C (dose: 200.0 mg/kg/injection, schedule: Q04DX003 (ip), vehicle: water) was 102 % of control and the T/C (dose: 400.0 mg/kg/injection, schedule: Q04DX003 (ip), vehicle: water) was 100 % of control.
C=CCNC(=O)Oc1cccc(NC(=O)OCC=C)c1 was tested, and the T/C [17] was 96 % of control, the T/C [18] was 96 % of control and the T/C [19] was 102 % of control.
COc1ccc2cc3[n+](cc2c1OC)CCc1cc2c(cc1-3)OCO2 was tested, and the T/C (dose: 3.12 mg/kg/injection, schedule: Q01DX009 (ip), vehicle: Klucel (hydroxypropylcellulose) (HPC)) was 110 % of control, the T/C [3] was 103 % of control and the T/C (dose: 6.25 mg/kg/injection, schedule: Q01DX009 (ip), vehicle: Klucel (hydroxypropylcellulose) (HPC)) was 117 % of control. For the same compound, the T/C [4] was 109 % of control, the T/C (dose: 12.0 mg/kg/injection, schedule: Q01DX Z (ip), vehicle: saline) was 114 % of control and the T/C (dose: 12.5 mg/kg/injection, schedule: Q01DX009 (ip), vehicle: Klucel (hydroxypropylcellulose) (HPC)) was 101 % of control and 106 % of control. The T/C [5] was 109 % of control.
In the case of CC(C)COC(=O)C1(N)CCCC1, the T/C (dose: 30.0 mg/kg/injection, schedule: Q01DX Z (ip), vehicle: saline) is reported as 113 % of control, the T/C (dose: 45.0 mg/kg/injection, schedule: Q01DX009 (ip), vehicle: saline) is reported as 109 % of control and the T/C (dose: 45.0 mg/kg/injection, schedule: Q01DX Z (ip), vehicle: saline) is reported as 121 % of control. For the same compound, the T/C (dose: 66.0 mg/kg/injection, schedule: Q01DX009 (ip), vehicle: saline) was 114 % of control, the T/C (dose: 150.0 mg/kg/injection, schedule: Q01DX Z (ip), vehicle: saline) was 114 % of control and 118 % of control and the T/C (dose: 224.0 mg/kg/injection, schedule: Q01DX Z (ip), vehicle: saline) was 120 % of control. For the same compound, the T/C (dose: 336.0 mg/kg/injection, schedule: Q01DX Z (ip), vehicle: saline) was 103 % of control.
With C[C@H]1C[C@@H]2[C@H]([C@@H](O)C[C@@]3(C)[C@H]2CC[C@]3(O)C(=O)CF)[C@@]2(C)C=CC(=O)C=C12 the T/C (dose: 62.0 mg/kg/injection, schedule: Q01DX015 (sc), vehicle: steriod suspending solution) was 97 % of control, the T/C (dose: 100.0 mg/kg/injection, schedule: Q04DX003 (sc), vehicle: Klucel (hydroxypropylcellulose) (HPC)) was 101 % of control and the T/C (dose: 125.0 mg/kg/injection, schedule: Q01DX015 (sc), vehicle: steriod suspending solution) was 94 % of control. The T/C (dose: 200.0 mg/kg/injection, schedule: Q04DX003 (sc), vehicle: Klucel (hydroxypropylcellulose) (HPC)) was 102 % of control, the T/C (dose: 250.0 mg/kg/injection, schedule: Q01DX015 (sc), vehicle: steriod suspending solution) was 102 % of control and the T/C (dose: 400.0 mg/kg/injection, schedule: Q04DX003 (sc), vehicle: Klucel (hydroxypropylcellulose) (HPC)) was 115 % of control. The T/C (dose: 500.0 mg/kg/injection, schedule: Q01DX015 (sc), vehicle: steriod suspending solution) was 102 % of control.
O=C(Nc1ccc(N=Nc2ccccc2)cc1)C1CC1 was tested, and the T/C [14] was 101 % of control, the T/C [15] was 100 % of control and the T/C [16] was 94 % of control.
In the case of CC1=N/C(=C/c2ccccc2)C(=O)O1, the T/C [17] is reported as 97 % of control, the T/C [18] is reported as 92 % of control and the T/C [19] is reported as 98 % of control.
In the case of Cc1ccc(C(=O)N(N)C2CCCCC2)cc1, the T/C [17] is reported as 95 % of control, the T/C [18] is reported as 93 % of control and the T/C [19] is reported as 96 % of control.
With COc1ccccc1NC(=O)Nc1ccccc1C the T/C [14] was 96 % of control, the T/C [11] was 94 % of control and the T/C [15] was 89 % of control. For the same compound, the T/C [12] was 100 % of control, the T/C [16] was 94 % of control and the T/C [13] was 90 % of control.
In the case of CSc1ncnc2c1C[P+](Cc1ccccc1)(c1ccccc1)CC2 (stereo unspecified), the T/C (dose: 100.0 mg/kg/injection, schedule: Q04DX002 (ip), vehicle: saline with Tween-80) is reported as 103 % of control.
For CC(C)(CBr)CC(=O)NC1CCCCC1, the T/C [7] was 98 % of control, the T/C [8] was 98 % of control and the T/C [9] was 96 % of control. For the same compound, the T/C [10] was 104 % of control.
With CCC1([N+](=O)[O-])COP(=O)(OC(=O)c2ccccc2)OC1 (stereo unspecified) the T/C [8] was 100 % of control, the T/C [9] was 108 % of control and the T/C [10] was 97 % of control.
